The values below come from PMC9267992, “Synthesis, Self-Assembly, and Cell Responses of Aromatic IKVAV Peptide Amphiphiles” (Molecules, 2022).

Test in data set [1]: not given
This is another data set of the same source.

The nature of data set [2]: Hydrogelation / self-assembly under physiological conditions. Type of data set: physicochemical. Conditions: for hydrogel formation: 1 wt.% (ca. 15 mM), pH 7.4; for Tgel-sol: hydrogel. From the text:
(§1) For biomedical applications, the self-assembly properties of Ben-IKVAV and PFB-IKVAV were investigated under physiological conditions. […] The corresponding microscopic morphologies were examined by transmission electron microscopy (TEM). […] The nanofibers are intertwined to form fiber bundles with a width of about 17 ± 1 nm. In contrast, PFB-IKVAV produces short nanofibers (diameter around 10 ± 1 nm). These fibrous nanostructures are distributed in water and entangled within a highly organized peptide-amphiphile nanofibers network (i.e., Ben-IKVAV and PFB-IKVAV), allowing for the formation of stable hydrogels. Moreover, the Tgel-sol of Ben-IKVAV and PFB-IKVAV were 65 and 55 °C, respectively. […] Furthermore, the self-assembly of Ben-IKVAV and PFB-IKVAV are viscoelastic gels, because the values of the G′ are higher than those of the loss modulus (G″) in both gels.

Data set [3] in a line: Negatively stained TEM of the hydrogels. Format: physicochemical. To be noted: 1 wt.%, pH 7.4.
Excerpt: as §1
Figure 2 Optical (insets) and negatively stained TEM images of (A) Ben-IKVAV and (B) PFB-IKVAV at a concentration of 1 wt.% under pH 7.4. (Scale bar: 100 nm).

The nature of data set [4]: Oscillatory rheology of the hydrogels. Conditions: 1 wt.%, pH 7.4, oscillatory rheology, ω = 0.1–100 rad·s^−1. Format: physicochemical.
Excerpt: as §1
Figure 3 Frequency-dependent (ω = 0.1–100 rad·s^−1) rheological measurement of Ben-IKVAV (circle) and PFB-IKVAV (square) at a concentration of 1 wt.% under pH 7.4 (solid for G′ and open for G′′).

Data set [5] in a line: Thioflavin T (ThT) fluorescence assay for fibrillar peptide structures. Type of data set: physicochemical. Conditions: ratio of ThT emission intensities (I0: without adding hydrogelators), emission at 484 nm. From the text: (§2) Since Ben-IKVAV and PFB-IKVAV could self-assemble to form the network of nanofibers and afford the hydrogels, we further studied the driving force for the intermolecular interactions of the hydrogelators using spectroscopic characterization. […] The UV-vis absorption and circular dichroism (CD) spectra of Ben-IKVAV and PFB-IKVAV in water and methanol are presented in Figure 4. The absorption peaks of Ben-IKVAV are at 262 nm and 254 nm in water and methanol, respectively, indicating the redshift feature caused by the aggregation formation in an aqueous solution. […] CD spectra were recorded to understand the structural properties and molecular arrangement of Ben-IKVAV and PFB-IKVAV (Figure 4C,D). At low concentrations of Ben-IKVAV and PFB-IKVAV (50 and 500 μM) in water, no CD signals were detected in the wavelength region 190–350 nm. […] In addition, Fourier-transform infrared spectroscopy (FT-IR) was employed to verify the hydrogen interactions between molecules in the self-assembled state. […] Since thioflavin T (ThT) is a well-known fluorescent dye utilized to identify the presence of amyloid fibrils, we used the ThT fluorescence assay to further confirm the fibrillar peptide structures present in Ben-IKVAV and PFB-IKVAV. It is known that when ThT binds to β-amyloid fibrils, a remarkable enhancement in fluorescence intensity can be detected at 484 nm. […]

The nature of data set [6]: Concentration-dependent circular dichroism in water. Format: physicochemical. Conditions: CD: no signal at 50 and 500 μM, Cotton effect at 1000 μM.
Excerpt: as §2
(In general: CD spectra are sensitive to the conformation of chiral molecules.)

For data set [7], the system named is hMSCs. Nature of the data set: MTT cell viability test. Type of data set: cell-based, human. To be noted: for cell viability: 500 μM, 48 h, ODsample/ODcontrol; for IC50: 10–500 μM, 24 and 48 h, read-out: half-inhibitory concentration (IC50). As for the experimental part: To evaluate the potential biological applications of Ben-IKVAV and PFB-IKVAV, we performed a biocompatibility test of these hydrogelators against hMSCs through MTT [3-(4,5-dimethylthiazol-2-yl)-2,5-diphenyltetrazolium bromide] assay, and the results are presented in Figure 6. The concentrations of Ben-IKVAV and PFB-IKVAV were selected in the range of 10–500 μM, and the cell viability measurements were processed at 24 and 48 h after cell seeding.
The biocompatibilities of Ben-IKVAV and PFB-IKVAV were measured by the MTT cell viability test. The hMSCs were seeded in 24-well plates (density: 50,000 cells per well) with Dulbecco’s modified Eagle’s medium (DMEM, 0.5 mL) containing 10% […] and 1% penicillin/streptomycin solution and then incubated for 24 h. Compounds of Ben-IKVAV and PFB-IKVAV at different concentrations (10, 50, 100, 200, and 500 µM) were added when cells were plated. After 24 and 48 h, the medium was replaced with fresh medium supplemented with MTT reagent (4 mg mL^–1, 0.5 mL per well). After another 4 h, the medium containing MTT was removed, and DMSO (0.5 mL per well) was added to dissolve the formazan crystals. Each of the 24 wells was transferred to a 96-well plate. The optical densities (ODs) of the resulting solutions were measured at 595 nm using an absorbance microplate reader (Infinite F50, TECAN, Männedorf, Switzerland). Cells that had not been subjected to treatment with the compounds were used as the control. The cell viability percentage (%) was calculated from the expression ODsample/ODcontrol.
(Formazan colour is commonly taken as a measure of viable cells.)

Data set [8] relates to hMSCs. Nature of the data set: Neural differentiation of hMSCs in neural induction medium (cell morphology, neurite outgrowth). Type of data set: cell-based, human. To be noted: 1000 μM in NIM; for differentiation of hMSCs into neuron-like cells: cultured 0, 2 and 7 days; for cell morphology and axon extension length (average neurite outgrowth length) versus NIM control: days 2 and 7, n = 50. The procedure: Since Ben-IKVAV and PFB-IKVAV are biocompatible, we then diluted 1 wt.% of Ben-IKVAV and PFB-IKVAV hydrogels with basal medium and neural induction medium (NIM) to 1000 μM, respectively, and cultured them with hMSCs for 0, 2, and 7 days (Figure S2 and Figure 7). […] The fibrous structures of Ben-IKVAV or PFB-IKVAV scattered in the culture medium (NIM) are combined with cell surface receptors to promote neural differentiation. To understand the effect of neural differentiation of hMSCs, the average neurite outgrowth lengths on days 2 and 7 were measured in the control and experimental groups (i.e., Ben-IKVAV in NIM and PFB-IKVAV in NIM).
The hMSCs were grown in 24-well plates (density: 2.4 × 10^5 cells per well) in NIM supplemented with 1% penicillin/streptomycin, 10^−7 M dexamethasone, 50 μg/mL L-Ascorbic acid-2 phosphate, 50 μM indomethacin, 10 μg/mL insulin, and 0.45 mM 3-isobutyl-1-methyl-xanthine. The cells cultured in a basal medium were used as a negative control.

In data set [9] the test system is hMSCs. In words: RT-qPCR analysis of neuronal-specific markers (Nestin, β-tubulin, SNCA, MAP2). Type of data set: cell-based, human. Conditions: 1000 µM in NIM. The procedure:
To investigate whether IKVAV derivatives can effectively promote the differentiation of stem cells into neural cells, we diluted 1 wt.% of Ben-IKVAV and PFB-IKVAV hydrogels with NIM to 1000 µM, respectively, and cultured hMSCs for 0, 2, and 7 days. The mRNA was collected from NIM, NIM in the presence of Ben-IKVAV, and NIM in the presence of PFB-IKVAV and subjected to real-time quantitative polymerase chain reaction (RT-qPCR) analysis. The expression of neuronal-specific markers, Nestin, β-tubulin, SNCA, and MAP2 are analyzed in this work.
Total RNA was isolated from the control and induced (Neurogenic) hMSCs and quantified with a spectrophotometer (NanoPhotometer™ Pearl Design Edition, Westlake Village, CA, USA). Complementary DNA (cDNA) was synthesized from the total purified RNA (1 μg) using a MMLV High-Performance Reverse Transcriptase kit with a 10 μM OligodT primer at 37 °C for 1 h. […] The RT-qPCR reaction was carried out with initial denaturation at 95 °C for 10 min, followed by 40 cycles of PCR at 95 °C for 15 s, and 60 °C for 60 s.
In general terms: Quantitative PCR measures a nucleic acid by following its amplification.

Data set [10] has as its system MAP2 in hMSCs. In words: Immunofluorescent staining for neuronal-specific marker MAP2. Format: cell-based, human. Conditions: neural induction medium in the presence of the peptide, day 7. From the text:
After neuronal inductions of hMSCs, immunofluorescent staining for neuronal-specific markers of β-tubulin and MAP2 was achieved. Figure 10 presents immunostaining for β-tubulin (green) with DAPI (blue) co-staining in hMSCs cultured with NIM (control), NIM in the presence of Ben-IKVAV, and NIM in the presence of PFB-IKVAV for days 1, 2, and 7. It can be seen that there is no β-tubulin stained on day 1. […] On the 7th day of culture, a more evident increase of β-tubulin was observed. […] It is speculated that the nuclear entry may be related to the initiation of the regulation of the gene level in the nucleus to make the differentiation more complete. […] After 7 days of differentiation, the cells gradually tended to mature nerve cells. Among these materials, PFB-IKVAV is the best one for helping cell differentiation.
After neuronal inductions of hMSCs, immunostaining was performed for neuronal-specific markers. Cells were fixed with 4% formaldehyde for 15 min and permeabilized with PBST buffer (0.1% Triton X-100 supplemented with BSA). After permeabilization, cells were blocked with Blocking buffer (PBST buffer + 5% serum) for 30 min and then incubated with primary antibodies β-tubulin (1:100) and MAP2 (1:200) at 4 °C overnight. […] Finally, cells were observed under a fluorescence microscope.

Test in data set [11]: not given
This is another data set of the same source.

Test in data set [12]: not given
This is another data set of the same source.

“perfluorophenyl-capped Ile-Lys-Val-Ala-Val”: the new absorption band in water came to 285 nm. The substance also came in with an FT-IR absorption peak (hydrogen bonding) in data set [1] of 1630 cm⁻¹.
As to “perfluorophenyl-capped Ile-Lys-Val-Ala-Val [PFB-IKVAV, IKVAV N-terminally coupled with 2-(perfluorophenyl)acetic acid; hydrogelator]”, in [2], the hydrogel formation entry is “form white translucent hydrogels” and the Tgel-sol was 55 °C. For the same substance, in data set [3], the nanofiber diameter entry was “around 10 ± 1 nm”. In data set [4], the “storage modulus (G′)” value is reported as 2.4 kPa. The “ThT fluorescence enhancement ratio” value in [5] was 210. Also, the “concentration at which the peptide self-assembles into high-order supramolecular structures” value in data set [6] is given as “higher than 1000 μM”. Moreover, in [7], the cell viability result is “over 75%” and the IC50 is greater than 500 µM. Also, in [8], the “differentiation of hMSCs into neuron-like cells” value is “could successfully differentiate hMSCs into neuron-like cells”; the “cell morphology and axon extension length (average neurite outgrowth length) versus NIM control” value is recorded as “no significant difference”. Further, in data set [9], the “cell differentiation ability (comparison of the two peptides)” value is recorded as “better cell differentiation ability than Ben-IKVAV”. Besides, the “immunofluorescent staining for MAP2 relative to neural induction medium (control)” value in data set [10] came to 4.6 times.
With phenyl-capped Ile-Lys-Val-Ala-Val, the absorption peak in water in data set [11] amounted to 262 nm. Also, the absorption peak in methanol in data set [12] was determined as 254 nm. In data set [1], the FT-IR absorption peak (hydrogen bonding) came to 1630 cm⁻¹.
With “phenyl-capped Ile-Lys-Val-Ala-Val [Ben-IKVAV, phenyl-capped pentapeptide; IKVAV N-terminally coupled with 2-phenylacetic acid; hydrogelator]”, in data set [2], the hydrogel formation entry was “form white translucent hydrogels” and the Tgel-sol turned out to be 65 °C. In addition, in data set [3], the nanofiber diameter was 4 ± 2 nm and the “width of fiber bundles” value was “about 17 ± 1 nm”. Also, in data set [4], the “storage modulus (G′)” value came to 32.0 kPa. In data set [5], the “ThT fluorescence enhancement ratio” value is on record as 140. In addition, the “concentration at which the peptide self-assembles into high-order supramolecular structures” value in [6] is given as “higher than 1000 μM”. Moreover, in [7], the cell viability entry is on record as “over 75%” and the IC50 is greater than 500 µM. Also, in [8], the “differentiation of hMSCs into neuron-like cells” value is recorded as “could successfully differentiate hMSCs into neuron-like cells”; the “cell morphology and axon extension length (average neurite outgrowth length) versus NIM control” value was “no significant difference”.
